Like-named read-outs stand apart in the source and are kept apart here.
Key:
[1] = target: VIM-1 (Pseudomonas aeruginosa, UniProt A0A0F7KYQ8); assay: Enzyme activity: determination of IC50, fluorescence assay with CCF2-FA substrate; assay type: biochemical; conditions: CCF2-FA 1.25 μM, 2 hours at 25° C., read-out: VIM1 IC50
Outline: (§1)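 100 mM KH2PO4 pH 7 + 0.005% Tween-20 + 10 μM ZnSO4; CCF2-FA 1.25 μM; NDM-1 1 pM, IMP-1 2 pM, VIM-1 30 pM; cpd 20–0.00063 μM final, DMSO 1:50. 2 h, 25° C. Ex 405/em 460 nm; IC50, 4-param fit.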

[2] = target: NDM-1 (Klebsiella pneumoniae, UniProt C7C422); assay: as above; assay type: biochemical; conditions: CCF2-FA 1.25 μM, 2 hours at 25° C., read-out: NDM1 IC50
Outline: as §1

[3] = target: IMP-1 (Serratia marcescens, UniProt P52699); assay: as above; assay type: biochemical; conditions: CCF2-FA 1.25 μM, 2 hours at 25° C., read-out: IMP1 IC50
Outline: as §1

[4] = test system: Klebsiella pneumoniae expressing VIM-1 (IHMA599644); assay: Antibiotic potentiation activity: synergistic concentration (MITC95) with imipenem, growth by OD600; assay type: cell-based
Outline: (§2)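 MITC95 = lowest inhibitor concentration giving 95% growth inhibition, read by absorbance after 22–24 h at 35° C. Compound range 200 μM to 0.195 μM, imipenem fixed at 1 or 4 μg/ml, bacteria in 1.1×CAMHB from saline suspension diluted 1:100.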

[5] = test system: Serratia marcescens expressing IMP-1 (CL5741); assay: as above; assay type: cell-based
Outline: as §2

[6] = test system: Escherichia coli expressing NDM-1 (CLB30016); assay: as above; assay type: cell-based
Outline: as §2

[7] = 95% inhibition of bacterial growth, strain IHMA599644
[8] = 95% inhibition of bacterial growth, strain CL5741
[9] = 95% inhibition of bacterial growth, strain CLB30016
[10] = K. pneumoniae IHMA599644 (VIM-1), 95% inhibition of growth
[11] = S. marcescens CL5741 (IMP-1), 95% inhibition of growth
[12] = E. coli CLB30016 (NDM-1), 95% inhibition of growth

IMP-1, sequence (P52699 19-246, looked up, species assumed): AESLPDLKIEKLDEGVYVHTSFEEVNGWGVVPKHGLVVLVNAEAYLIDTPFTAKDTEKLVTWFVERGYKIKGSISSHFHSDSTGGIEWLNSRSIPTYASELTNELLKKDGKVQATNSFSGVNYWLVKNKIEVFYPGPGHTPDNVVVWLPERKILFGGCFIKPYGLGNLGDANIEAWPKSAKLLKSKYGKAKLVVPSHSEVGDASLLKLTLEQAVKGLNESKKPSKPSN
NDM-1, sequence (C7C422 29-270, looked up, species assumed): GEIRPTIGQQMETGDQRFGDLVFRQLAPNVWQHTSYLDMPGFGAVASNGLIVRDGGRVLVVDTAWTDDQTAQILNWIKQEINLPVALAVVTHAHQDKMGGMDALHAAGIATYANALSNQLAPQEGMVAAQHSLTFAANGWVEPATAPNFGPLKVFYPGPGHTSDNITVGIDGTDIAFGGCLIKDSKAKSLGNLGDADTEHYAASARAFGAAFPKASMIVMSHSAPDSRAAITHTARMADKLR

| Compound | IC50 ([1]; enzyme 30 pM) | IC50 ([2]; enzyme 1 pM) | IC50 ([3]; enzyme 2 pM) | VIM1 KP599644 MITC95 [4, 7] | IMP1 SM5741 MITC95 [5, 8] | NDM1 EC30016 MITC95 [6, 9] | IC50 ([1]; VIM-1 enzyme 30 pM) | IC50 ([2]; NDM-1 enzyme 1 pM) | IC50 ([3]; IMP-1 enzyme 2 pM) | VIM1 KP599644 MITC95 [4, 10] | IMP1 SM5741 MITC95 [5, 11] | NDM1 EC30016 MITC95 [6, 12] |
| --- | --- | --- | --- | --- | --- | --- | --- | --- | --- | --- | --- | --- |
| O=C(O)[C@@H](C1CCOC1)[C@H](Cc1ccc(C2=CCNC2)cc1)c1nnn[nH]1 (stereo partly drawn) [Example 67, (2R,3S)-4-(4-(2,5-dihydro-1H-pyrrol-3-yl)phenyl)-2-(tetrahydrofuran-3-yl)-3-(1H-tetrazol-5-yl)butanoic acid] | 25 nM | 890 nM | 12000 nM | 25 µM | 50 µM | 12.5 µM |  |  |  |  |  |  |
| CCC[C@H](C(=O)O)[C@H](Cc1ccc(C(=O)NC2CC2)cc1)c1nnn[nH]1 [Example 281, (2S)-2-[(1S)-2-[4-(cyclopropylcarbamoyl)phenyl]-1-(1H-tetrazol-5-yl)ethyl]pentanoic acid] |  |  |  |  |  |  | 86 nM | 770 nM | 5300 nM | 200 µM | 200 µM | 100 µM |
| CC(C)(C)[C@H](C(=O)O)[C@H](Cc1ccc(N)nc1)c1nnn[nH]1 [Example 123, (2R,3S)-4-(6-aminopyridin-3-yl)-2-(tert-butyl)-3-(1H-tetrazol-5-yl)butanoic acid] | 590 nM | 1100 nM | > 20000 nM | 50 µM | >200 µM | 3.1 µM |  |  |  |  |  |  |
| CC(C)C[C@H](C(=O)O)[C@H](Cc1ccc(C2=CCCNC2)c(F)c1)c1nn[nH]n1 [Example 450, 5-(4-((2S,3S)-3-carboxy-5-methyl-2-(2H-tetrazol-5-yl)hexyl)-2-fluorophenyl)-1,2,3,6-tetrahydropyridin-1-ium 2,2,2-trifluoroacetate] |  |  |  |  |  |  | 2.18 nM | 88.9 nM | 138 nM | 18.75 µM | 6.25 µM | 7.813 µM |
| CC(C)C[C@H](C(=O)O)[C@H](Cc1ccc(C#N)cc1)c1nnn[nH]1 [Example 42] | 1.4 nM | 74 nM | 190 nM | 37.5 µM | 12.5 µM | 18.8 µM |  |  |  |  |  |  |
| CC(C)(C)[C@H](C(=O)O)[C@H](Cc1cccc2sc(N)nc12)c1nnn[nH]1 [Example 424, (2R,3S)-4-(2-aminobenzo[d]thiazol-4-yl)-2-(tert-butyl)-3-(1H-tetrazol-5-yl)butanoic acid] |  |  |  |  |  |  | 10.8 nM | 2.68 nM | 9.29 nM | 200 µM | 25 µM | 12.5 µM |
| CCC[C@H](C(=O)O)[C@H](Cc1cccc(C(=O)O)n1)c1nnn[nH]1 [Example 94, 6-((2S,3)-3-carboxy-2-(1H-tetrazol-5-yl)hexyl)picolinic acid] | 2900 nM | 4500 nM | > 20000 nM | 200 µM | >200 µM | 50 µM |  |  |  |  |  |  |
| CCC[C@H](C(=O)O)[C@H](Cc1cccc(N2CCN(C)CC2)c1)c1nn[nH]n1 [Example 362, (2S)-2-[(1S)-2-[3-(4-methylpiperazin-1-yl)phenyl]-1-(2H-tetrazol-5-yl)ethyl]pentanoic acid] |  |  |  |  |  |  | 10 nM | 640 nM | 11000 nM | 18.8 µM | 150 µM | 25 µM |
| CC(C)C[C@H](C(=O)O)[C@H](Cc1ccc(CCN)c(F)c1)c1nn[nH]n1.O=C(O)C(F)(F)F [Example 445, 2-(4-((2S,3S)-3-carboxy-5-methyl-2-(2H-tetrazol-5-yl)hexyl)-2-fluorophenyl)ethanaminium 2,2,2-trifluoroacetate] |  |  |  |  |  |  | 1.98 nM | 281 nM | 693 nM | 12.5 µM | 25 µM | 9.375 µM |
| CC(C)C[C@H](C(=O)O)[C@H](Cc1ccc(Oc2ccnc(N3CCNCC3)c2)nc1)c1nn[nH]n1 [Example 379, (2S)-4-methyl-2-[(1S)-2-{6-[(2-piperazin-1-ylpyridin-4-yl)oxy]pyridin-3-yl}-1-(2H-tetrazol-5-yl)ethyl]pentanoic acid] |  |  |  |  |  |  | 7.1 nM | 32 nM | 370 nM | 100 µM | 16 µM | 9.4 µM |
| CC(C)[C@H](C(=O)O)[C@H](Cc1ccc(N2CCC[C@@H]2CO)nc1)c1nnn[nH]1 [Example 127, (2S,3S)-4-(6-((R)-2-(hydroxymethyl)pyrrolidin-1-yl)pyridin-3-yl)-2-isopropyl-3-(1H-tetrazol-5-yl)butanoic acid] | 280 nM | 320 nM | 10000 nM | 200 µM | 200 µM | 12.5 µM |  |  |  |  |  |  |
| CCC[C@H](C(=O)O)[C@H](Cc1ccccc1-c1ccc(NS(C)(=O)=O)cc1)c1nn[nH]n1 [Example 402, (2S)-2-[(1S)-2-{4′-[(methylsulfonyl)amino]biphenyl-2-yl}-1-(2H-tetrazol-5-yl)ethyl]pentanoic acid] |  |  |  |  |  |  | 1.5 nM | 0.095 nM | 230 nM | 25 µM | 12.5 µM | 3.1 µM |
| CC(C)C[C@H](C(=O)O)[C@H](Cc1ccc(COCC2CCNCC2)c(F)c1)c1nn[nH]n1.O=C(O)C(F)(F)F [Example 442, 5-((2S,3S)-3-carboxy-1-(3-fluoro-4-((piperidin-4-ylmethoxy)methyl)phenyl)-5-methylhexan-2-yl)-2H-tetrazol-3-ium 2,2,2-trifluoroacetate] |  |  |  |  |  |  | 8.73 nM | 74.7 nM | 110 nM | 25 µM | 6.25 µM | 12.5 µM |
| CCC[C@H](C(=O)O)[C@H](Cc1cccc(-c2ccc(NS(C)(=O)=O)cc2)c1)c1nn[nH]n1 [Example 343, (2S)-2-[(1S)-2-{4′-[(methylsulfonyl)amino]biphenyl-3-yl}-1-(2H-tetrazol-5-yl)ethyl]pentanoic acid] |  |  |  |  |  |  | 2.4 nM | 11 nM | 22 nM | 18.8 µM | 0.39 µM | 25 µM |
| CCC[C@H](C(=O)O)[C@H](Cc1ccc2nsnc2c1)c1nnn[nH]1 [Example 271, (2S)-2-[(1S)-2-(2,1,3-benzothiadiazol-5-yl)-1-(1H-tetrazol-5-yl)ethyl]pentanoic acid] |  |  |  |  |  |  | 1.1 nM | 84 nM | 650 nM | 12.5 µM | 50 µM | 6.2 µM |
| CC(C)C[C@H](C(=O)O)[C@H](Cc1ccc(N2CCCC2)nc1)c1nnn[nH]1 [Example 304, (2S)-4-methyl-2-[(1S)-2-(6-pyrrolidin-1-ylpyridin-3-yl)-1-(1H-tetrazol-5-yl)ethyl]pentanoic acid] |  |  |  |  |  |  | 7.8 nM | 170 nM | 1300 nM | 18.8 µM | 38 µM | 4.7 µM |
| CCC[C@H](C(=O)O)[C@H](Cc1cccc(N(C)CCN(C)C)c1)c1nn[nH]n1 [Example 361, (2S)-2-[(1S)-2-(3-{[2-(dimethylamino)ethyl] (methyl)amino}phenyl)-1-(2H-tetrazol-5-yl)ethyl]pentanoic acid] |  |  |  |  |  |  | 29 nM | 390 nM | 8700 nM | 25 µM | 150 µM | 38 µM |
| CCC[C@H](C(=O)O)C(Cc1cccc(C(F)(F)F)c1)c1nnn[nH]1 (stereo in doubt) [Example 267, (2S)-2-{(1S)-1-(1H-tetrazol-5-yl)-2-[3-(trifluoromethyl)phenyl]ethyl}pentanoic acid] |  |  |  |  |  |  | 0.86 nM | 14 nM | 280 nM | 18.8 µM | 9.4 µM | 9.4 µM |
| CCC[C@H](C(=O)O)[C@H](Cc1cccc(-c2ccc(N3CCOCC3)nc2)c1)c1nn[nH]n1 [Example 346, (2S)-2-[(1S)-2-[3-(6-morpholin-4-ylpyridin-3-yl)phenyl]-1-(2H-tetrazol-5-yl)ethyl]pentanoic acid] |  |  |  |  |  |  | 2.2 nM | 21 nM | 320 nM | 38 µM | 6.2 µM | 75 µM |

— patent publication US9839642B2, “Beta-tetrazolyl-propionic acids as metallo-beta-lactamase inhibitors” (priority 2014, dated 2017)
